According to patent US20260258032A1, “TYROSINE KINASE 2 INHIBITORS AND USES THEREOF” (BIOGEN MA INC., priority 2022, published 2026):
Structures can show the parent of a compound that is named as a salt.

Tests used:
[1] = tested on: Tyk2 kinase activity on STAT4; assay: pSTAT4 cell assay (MSD, NK92 cells); assay type: cell-based; conditions: compounds 1 hr, stimulated 15 minutes
Summary of the method: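 Cells natively expressing STAT4 and Tyk2 (NK92) are serum-starved to lower background phosphorylation, exposed to compound for 1 hr over a 10-point four-fold series starting at 10 μM, and stimulated with 30 ng/mL IL2 for 15 minutes. Phosphorylation is quantified on MSD with anti-STAT4 antibodies.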

JH2 domain of human Tyk2 = target: T1, JH2 domain of human Tyk2 (Homo sapiens, UniProt P29597); assay: JH2 biochemical assay (TR-FRET probe displacement); assay type: binding; conditions: JH2 biochemical assay
T1 construct: 10×His-tagged TYK2 JH2 domain (amino acid 575-876)
T1 sequence (P29597 575-876): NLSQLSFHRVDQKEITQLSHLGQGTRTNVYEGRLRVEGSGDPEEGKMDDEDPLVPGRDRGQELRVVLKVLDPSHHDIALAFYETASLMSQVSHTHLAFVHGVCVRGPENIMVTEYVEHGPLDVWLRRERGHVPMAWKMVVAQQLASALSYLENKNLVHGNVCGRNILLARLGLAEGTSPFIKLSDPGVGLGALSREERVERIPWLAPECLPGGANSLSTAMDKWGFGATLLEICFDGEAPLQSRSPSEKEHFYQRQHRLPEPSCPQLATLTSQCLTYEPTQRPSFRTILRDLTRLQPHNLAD
Summary of the method: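 A probe-displacement TR-FRET readout: compounds, tested in 3-fold, 10-point dilutions starting at […], compete with 2 nM tracer for 2 nM His-tagged JH2 (residues 575-876) detected by 0.1 nM Tb-anti-His over 60 min. IC50 comes from 4-parameter fits of normalized 520/495 nm ratios.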

| Compound | IC50 [1] | IC50 (JH2 domain of human Tyk2) |
| --- | --- | --- |
| CC(=O)Nc1cc2c(cn1)C1(CC1)CN2c1cc(OCCN(C)C)nc(C(C)(F)F)n1 [Example 140, N-(1′-(2-(1,1-difluoroethyl)-6-(2-(dimethylamino)ethoxy)pyrimidin-4-yl)-1′,2′-dihydrospiro[cyclopropane-1,3′-pyrrolo[3,2-c]pyridin]-6′-yl)acetamide trifluoroacetate] | ≥ 1000 nM | 10 to 100 nM |
| CC(=O)Nc1cc2c(cn1)C1(CC1)CN2c1cc(OC2COC2)nc(C(C)(F)F)n1 [Example 141, N-(1′-(2-(1,1-difluoroethyl)-6-(oxetan-3-yloxy)pyrimidin-4-yl)-1′,2′-dihydrospiro[cyclopropane-1,3′-pyrrolo[3,2-c]pyridin]-6′-yl)acetamide] | 100 to 1000 nM | ≤ 10 nM |
| CC(=O)Nc1cc2c(cn1)C1(CC1)CN2c1cc(Oc2cncnc2)nc(C(C)(F)F)n1 [Example 142, N-(1′-(2-(1,1-difluoroethyl)-6-(pyrimidin-5-yloxy)pyrimidin-4-yl)-1′,2′-dihydrospiro[cyclopropane-1,3′-pyrrolo[3,2-c]pyridin]-6′-yl)acetamide trifluoroacetate] | ≥ 1000 nM | 10 to 100 nM |
| CC(=O)Nc1cc2c(cn1)C1(CC1)CN2c1cc(Oc2ccn(C)n2)nc(C(C)(F)F)n1 [Example 143, N-(1′-(2-(1,1-difluoroethyl)-6-((1-methyl-1H-pyrazol-3-yl)oxy)pyrimidin-4-yl)-1′,2′-dihydrospiro[cyclopropane-1,3′-pyrrolo[3,2-c]pyridin]-6′-yl)acetamide trifluoroacetate] | 100 to 1000 nM | ≤ 10 nM |
| CC(=O)Nc1cc2c(cn1)C1(CC1)CN2c1cc(OC2(C#N)CC2)nc(C(C)(F)F)n1 [Example 144, N-(1′-(6-(1-cyanocyclopropoxy)-2-(1,1-difluoroethyl)pyrimidin-4-yl)-1′,2′-dihydrospiro[cyclopropane-1,3′-pyrrolo[3,2-c]pyridin]-6′-yl)acetamide trifluoroacetate] | ≥ 1000 nM | 10 to 100 nM |
| CC(=O)Nc1cc2c(cn1)C1(CC1)CN2c1cc(Oc2cnn(C)c2)nc(C(C)(F)F)n1 [Example 145, N-(1′-(2-(1,1-difluoroethyl)-6-((1-methyl-1H-pyrazol-4-yl)oxy)pyrimidin-4-yl)-1′,2′-dihydrospiro[cyclopropane-1,3′-pyrrolo[3,2-c]pyridin]-6′-yl)acetamide trifluoroacetate] | 100 to 1000 nM | 10 to 100 nM |
| CC(=O)Nc1cc2c(cn1)C1(CC1)CN2c1cc(Oc2cnnn2C)nc(C(C)(F)F)n1 [Example 149, N-(1′-(2-(1,1-difluoroethyl)-6-((1-methyl-1H-1,2,3-triazol-5-yl)oxy)pyrimidin-4-yl)-1′,2′-dihydrospiro[cyclopropane-1,3′-pyrrolo[3,2-c]pyridin]-6′-yl)acetamide trifluorocetate] | ≥ 1000 nM | 10 to 100 nM |
| CC(=O)Nc1cc2c(cn1)C1(CC1)CN2c1cc(OC(C)C#N)nc(C(C)(F)F)n1 (stereo not drawn) [Example 151, N-(1′-(6-(1-cyanoethoxy)-2-(1,1-difluoroethyl)pyrimidin-4-yl)-1′,2′-dihydrospiro[cyclopropane-1,3′-pyrrolo[3,2-c]pyridin]-6′-yl)acetamide trifluoroacetate] | ≥ 1000 nM | 10 to 100 nM |
| CC(=O)Nc1cc2c(cn1)C1(CC1)CN2c1cc(OC(C#N)C2CC2)nc(C(C)(F)F)n1 (stereo not drawn) [Example 152, N-(1′-(6-(cyano(cyclopropyl)methoxy)-2-(1,1-difluoroethyl)pyrimidin-4-yl)-1′,2′-dihydrospiro[cyclopropane-1,3′-pyrrolo[3,2-c]pyridin]-6′-yl)acetamide trifluoroacetate] | 100 to 1000 nM | 10 to 100 nM |
| CC(=O)Nc1cc2c(cn1)C1(CC1)CN2c1cc(NC(C)C)nc(C(C)(F)F)n1 [Example 153, N-(1′-(2-(1,1-difluoroethyl)-6-(isopropylamino)pyrimidin-4-yl)-1′,2′-dihydrospiro[cyclopropane-1,3′-pyrrolo[3,2-c]pyridin]-6′-yl)acetamide trifluoroacetate] | 10 to 100 nM | ≤ 10 nM |
| CC(=O)Nc1cc2c(cn1)C1(CC1)CN2c1cc(NCC2CC2)nc(C(C)(F)F)n1 [Example 154, N-(1′-(6-((cyclopropylmethyl)amino)-2-(1,1-difluoroethyl)pyrimidin-4-yl)-1′,2′-dihydrospiro[cyclopropane-1,3′-pyrrolo[3,2-c]pyridin]-6′-yl)acetamide trifluoroacetate] | ≤ 10 nM | ≤ 10 nM |
| CC(=O)Nc1cc2c(cn1)C1(CC1)CN2c1cc(NC2CCOCC2)nc(C(C)(F)F)n1 [Example 155, N-(1′-(2-(1,1-difluoroethyl)-6-((tetrahydro-2H-pyran-4-yl)amino)pyrimidin-4-yl)-1′,2′-dihydrospiro[cyclopropane-1,3′-pyrrolo[3,2-c]pyridin]-6′-yl)acetamide] | 10 to 100 nM | ≤ 10 nM |
| CCCNc1cc(N2CC3(CC3)c3cnc(NC(C)=O)cc32)nc(C(C)(F)F)n1 [Example 156, N-(1′-(2-(1,1-difluoroethyl)-6-(propylamino)pyrimidin-4-yl)-1′,2′-dihydrospiro[cyclopropane-1,3′-pyrrolo[3,2-c]pyridin]-6′-yl)acetamide trifluoroacetate] | ≤ 10 nM | ≤ 10 nM |
| CC(=O)Nc1cc2c(cn1)C1(CC1)CN2c1cc(NC2CCC2)nc(C(C)(F)F)n1 [Example 157, N-(1′-(6-(cyclobutylamino)-2-(1,1-difluoroethyl)pyrimidin-4-yl)-1′,2′-dihydrospiro[cyclopropane-1,3′-pyrrolo[3,2-c]pyridin]-6′-yl)acetamide trifluoroacetate] | ≤ 10 nM | ≤ 10 nM |
| COC(C)(C)CNc1cc(N2CC3(CC3)c3cnc(NC(C)=O)cc32)nc(C(C)(F)F)n1 [Example 158, N-(1′-(2-(1,1-difluoroethyl)-6-((2-methoxy-2-methylpropyl)amino)pyrimidin-4-yl)-1′,2′-dihydrospiro[cyclopropane-1,3′-pyrrolo[3,2-c]pyridin]-6′-yl)acetamide trifluoroacetate] | ≤ 10 nM | ≤ 10 nM |
| CC(=O)Nc1cc2c(cn1)C1(CC1)CN2c1cc(NCC2(F)CC2)nc(C(C)(F)F)n1 [Example 160, N-(1′-(2-(1,1-difluoroethyl)-6-(((1-fluorocyclopropyl)methyl)amino)pyrimidin-4-yl)-1′,2′-dihydrospiro[cyclopropane-1,3′-pyrrolo[3,2-c]pyridin]-6′-yl)acetamide trifluoroacetate] | 10 to 100 nM | ≤ 10 nM |
| COC1(CNc2cc(N3CC4(CC4)c4cnc(NC(C)=O)cc43)nc(C(C)(F)F)n2)CC1 [Example 161, N-(1′-(2-(1,1-difluoroethyl)-6-(((1-methoxycyclopropyl)methyl)amino)pyrimidin-4-yl)-1′,2′-dihydrospiro[cyclopropane-1,3′-pyrrolo[3,2-c]pyridin]-6′-yl)acetamide trifluoroacetate] | 10 to 100 nM | ≤ 10 nM |
| CC(=O)Nc1cc2c(cn1)C1(CC1)CN2c1cc(NC[C@H]2CCO2)nc(C(C)(F)F)n1 [Example 162, (R)-N-(1′-(2-(1,1-difluoroethyl)-6-((oxetan-2-ylmethyl)amino)pyrimidin-4-yl)-1′,2′-dihydrospiro[cyclopropane-1,3′-pyrrolo[3,2-c]pyridin]-6′-yl)acetamide] | 10 to 100 nM | ≤ 10 nM |
